Patent publication US10207993B2 (priority 2014, dated 2019)
pEC50: −log10 of the molar value. Where “and” joins values, the source holds several entries; their conditions need not be identical. Identical values can stand only once. Like-named read-outs stand apart in the source and are kept apart here.

Tests used:
H37Rv [1] = assay: microbe, parasite or virus in culture; type: cell-based, M. tuberculosis; details: Mycobacterium tuberculosis, H37RV, THP-1, 90 h, read-out: H37Rv % Inhibition at 500 nM
JAL2287 [2] = type: cell-based, M. tuberculosis
in vivo [3] = details: Beagle, dog
H37Rv [4] = type: cell-based, M. tuberculosis
in vivo [5] = details: Balb/C, mouse
[6] = Balb/C, mouse, in vivo, po, 10 mg/kg
MDR-M. tb (JAL2287) = test system: MDR-M. tb (JAL2287); design: species or system M. tuberculosis; details: in vivo
MYC431 [7] = type: cell-based, M. tuberculosis
H37Rv [8] = assay: microbe, parasite or virus in culture; type: cell-based, M. tuberculosis; details: Mycobacterium tuberculosis, THP-1, 90 h
[9] = test system: drug susceptible M. tb (H37Rv); design: species or system M. tuberculosis; details: in vivo
MYC431 [10] = assay: microbe, parasite or virus in culture; type: cell-based, M. tuberculosis; details: Mycobacterium tuberculosis, THP-1, 90 h
JAL2287 [11] = assay: microbe, parasite or virus in culture; type: cell-based, M. tuberculosis; details: Mycobacterium tuberculosis, THP-1, 90 h

**Q.** Which inhibition at 0.5 µM (H37Rv [1]) does the source give for CO[C@@H](C(=O)NC1CCNCC1)c1ccccc1 [Compound 1085, (R)-2-Methoxy-2-phenyl-N-(piperidin-4-yl)acetamide] here?
**A.** 93%

**Q.** What about the “CFU/well (1 × 10^3) After treatment with 1085” value (“CFU/well” for short) (JAL2287 [2]) of the same compound?
**A.** 6.33 ± 3.51 CFU/well (1 × 10^3)

**Q.** What about the bioavailability (in vivo [3]) of the same compound?
**A.** 57%

**Q.** And the AUC(0-t) (in vivo [3]; iv, 0.3 mg/kg)?
**A.** 3.44 µM·h

**Q.** And the Cmax (in vivo [3]; iv, 0.3 mg/kg)?
**A.** 2.76 µM

**Q.** What about the Tmax (in vivo [3]; iv, 0.3 mg/kg) of the same compound?
**A.** 0 h

**Q.** And the half-life (in vivo [3]; iv, 0.3 mg/kg)?
**A.** 3 h

**Q.** And the AUC(0-t) (in vivo [3]; po, 3 mg/kg)?
**A.** 19.6 µM·h

**Q.** And the Cmax (in vivo [3]; po, 3 mg/kg)?
**A.** 3.77 µM

**Q.** What about the Tmax (in vivo [3]; po, 3 mg/kg) of the same compound?
**A.** 1 h

**Q.** What about the half-life (in vivo [3]; po, 3 mg/kg) of the same compound?
**A.** 2.5 h

**Q.** And the “CFU/well” value (H37Rv [4])?
**A.** 8.66 ± 2.51 CFU/well (1 × 10^3)

**Q.** And the bioavailability (in vivo [5])?
**A.** 47%

**Q.** And the AUC (in vivo [5]; iv, 1 mg/kg)?
**A.** 1.73 µM·h

**Q.** And the Cmax (in vivo [5]; iv, 1 mg/kg)?
**A.** 3.06 µM

**Q.** What about the Tmax (in vivo [5]; iv, 1 mg/kg) of the same compound?
**A.** 0 h

**Q.** What about the Vd (in vivo [5]; iv, 1 mg/kg) of the same compound?
**A.** 0.22 L/kg

**Q.** And the clearance (in vivo [5]; iv, 1 mg/kg)?
**A.** 1.33 mL/min/kg

**Q.** And the half-life (in vivo [5]; iv, 1 mg/kg)?
**A.** 1.9 h

**Q.** What about the AUC (in vivo [5]; po, 10 mg/kg) of the same compound?
**A.** 8.17 µM·h

**Q.** What about the Cmax (in vivo [5]; po, 10 mg/kg) of the same compound?
**A.** 11.2 µM

**Q.** And the Tmax (in vivo [5]; po, 10 mg/kg)?
**A.** 0.2 h

**Q.** And the half-life (in vivo [5]; po, 10 mg/kg)?
**A.** 2.8 h

**Q.** What about the Cl [6] of the same compound?
**A.** 2 mL/min/kg

**Q.** And the Vd [6]?
**A.** 0.13 L/kg

**Q.** What about the “% Reduction of CFU in lung” value (MDR-M. tb (JAL2287)) of the same compound?
**A.** 43.5% and 62.4% and 80.0%

**Q.** And the “% Reduction of CFU in spleen” value (MDR-M. tb (JAL2287))?
**A.** 96.6% and 98.3%

**Q.** What about the “CFU/spleen (×10^3)” value (MDR-M. tb (JAL2287)) of the same compound?
**A.** 0.4 ×10^3 and 0.2 ×10^3

**Q.** And the “CFU/well” value (MYC431 [7])?
**A.** 6.00 ± 1.00 CFU/well (1 × 10^3)

**Q.** What about the pEC50 (H37Rv [8]) of the same compound?
**A.** 9.30

**Q.** And the “CFU/Lung (×10^5)” value [9]?
**A.** 4.76 ×10^5

**Q.** And the pEC50 (MYC431 [10])?
**A.** 10.00

**Q.** What about the pEC50 (JAL2287 [11]) of the same compound?
**A.** 10.00
